The results in this text go back to article PMC12040169 (PLOS Biology, 2025).

For orientation: viability means a read-out of living cells in per cent, often relative to untreated cells.

This data set can be described thus: in vitro. Particulars: human, hela cells, % viability.

For `CC1CNCCC1n1nc(-c2cccs2)ccc1=O` (stereo not shown) [CBK284221], the viability at 28.5 h, 10 µM was 82.9%.
The value for `COc1cccc(CN[C@@H]2CCC[C@H]2Cc2cc(C)no2)c1` [CBK283006] was 109%; that for `COc1ccc(Cl)cc1NC(=O)CN(c1cccc(C(C)=O)c1)S(C)(=O)=O` [CBK267835] was 108%; that for `COc1ccc(OCc2nc3ccccc3n2C(C)c2ccccc2)cc1` (stereo not shown) [CBK293941] was 116%.
The value for `COC(=O)c1ccccc1OC(=O)COc1ccc(Cl)cc1Br` [CBK268733] was 83.7%.
As for `COc1ccc(-c2nnc3c4ccccc4c(C)nn23)cc1S(=O)(=O)NC(C)c1ccccc1` (stereo not shown) [CBK266605], the viability at 28.5 h, 10 µM is 104%.
Then `CN(C)CCNC(=O)Cn1c(-c2ccc(F)cc2)cc2cccnc21` [CBK284820], with 97.7%.
The value for `CC1CCc2nc(NC(=O)c3ccccc3)sc2C1` (stereo not shown) [CBK287298] was 97.2%; that for `CCCc1nc(NC(c2cccc(C)n2)C2CC2)c2cnn(C)c2n1` (stereo not shown) [CBK306795] was 88%.
The value for `CCn1c(=O)sc2cc(Br)ccc21` [CBK026526] was 97%.
For `CNC(=O)c1cc2ncc(C(F)(F)F)cc2s1` [CBK089882], the viability at 28.5 h, 10 µM stood at 93.1%.
As to `c1ccc(CCNc2nc(-c3cccs3)cn3ccnc23)nc1` [CBK066633], the viability at 28.5 h, 10 µM was determined as 101%.
Then `COc1ccc(C(=O)N2CCC3(CCN(C(=O)/C=C/c4ccc5c(c4)OCO5)C3)C2)cc1OC` (stereo not shown) [CBK131775], with 96.6%; and `CCNC(=O)c1cnc(-c2cccc(C(F)(F)F)c2)c(-c2cccc(CO)c2)c1` [CBK037557], with 94.7%.
The value for `O=S(=O)(NCc1ccc(CNS(=O)(=O)c2ccccc2)cc1)c1ccccc1` [CBK265471] was 113%.
Consider `Cc1cc(Cl)cc(C)c1NS(=O)(=O)c1ccc(N2CCCNCC2)c2ccccc12` [CBK004433C], for which the viability at 28.5 h, 10 µM came to 97.2%.
The value for `CC(C)c1noc(-c2ncn3c2c(=O)n(C(C)C)c2cc(F)ccc23)n1` [CBK016659] was 102%.
Consider `O=C(Nc1snnc1-c1ccc(Cl)cc1)c1ccc(OC(F)(F)F)cc1` [CBK153247], for which the viability at 28.5 h, 10 µM came out at 70.5%.
Then `CS(=O)(=O)N[C@H]1CO[C@H]2[C@@H]1OC[C@@H]2Nc1nccc(-c2ccco2)n1` [CBK289525], with 96.4%.
The value for `O=C(Cc1cc(C(=O)O)c2ccccc2n1)Nc1ccccc1` [CBK268227] was 96.3%; that for `CCn1c(SCc2nc(-c3cccs3)no2)nnc1-c1c[nH]c2ccccc12` [CBK268607] was 104%.
The value for `Cc1cccc(C(=O)N2CCC(N(C)Cc3ccc(-c4ccc(S(C)(=O)=O)cc4)nc3)CC2)n1` [CBK165937T] was 81.5%; that for `Clc1ccc(-c2nc(C3CCN(CCc4ccccc4)CC3)n3ccccc23)cc1` [CBK035316] was 90.7%.
Consider `CC(C)(C)NS(=O)(=O)c1ccc(NC(=O)NC2CCCCC2)cc1` [CBK267324], for which the viability at 28.5 h, 10 µM is 96.7%.
The value for `CN(C)CCCC(=O)Nc1ccc2[nH]ccc2c1` [CBK159698] was 114%.
Regarding `O=C(Nc1ccc2oc(-c3cccnc3)nc2c1)c1ccc(-c2ccccc2)cc1` [CBK264035], the viability at 28.5 h, 10 µM came to 88.3%.
With `COc1ccc(-c2nn(-c3ccccc3)cc2C(=O)Nc2ccc(C(=O)O)cc2)cc1` [CBK296121], the viability at 28.5 h, 10 µM was 106%.
Then `Cc1nc2c(c(=O)[nH]1)CCN(Cc1cn(C(C)C)c3ccccc13)C2` [CBK283991], with 105%; and `CS(=O)(=O)c1ncc(Cl)c(C(=O)N(Cc2ccccc2)Cc2ccco2)n1` [CBK269603], with 29.3%; and `O=C(CC1C(=O)N(c2cccc(Cl)c2)C(=O)N1CCc1cccs1)Nc1ccccc1` (stereo not shown) [CBK267499], with 79.7%.
Then `COc1cc(CN2CCN(C(=O)c3cccnc3)CC2)cc(OC)c1O` [CBK265210G], with 85.2%; and `COC[C@H]1CCCN1C(=O)CC[C@H]1CNC(=O)[C@@H]2[C@@H](CCN2C2CCCCC2)N1C` [CBK289039], with 89.7%; and `Cc1cc(C)n2c(SCC(=O)O)nnc2n1` [CBK027406], with 108%.
Consider `Cc1cccc(OCCN2C(=O)CC(Cc3cnn(C)c3)C2=O)c1` (stereo not shown) [CBK304081], for which the viability at 28.5 h, 10 µM is 99.7%.
Then `CC1CCC(C(N)=O)CN1C(=O)c1csc(COc2ccc(Cl)cc2)n1` (stereo not shown) [CBK304948], with 102%; and `CCn1cncc1CN1CCCC(O)(c2ccc(F)cc2)CC1` (stereo not shown) [CBK284838], with 90.6%; and `CC(=O)N1CCN(C(=O)C(C)S(=O)(=O)c2ccccc2F)CC1` (stereo not shown) [CBK305603], with 97.7%.
As for `CN(C(=O)CCn1c(=O)oc2cc(Cl)ccc21)C1(C(N)=O)CCCC1` [CBK305493], the viability at 28.5 h, 10 µM was 89.1%.
The value for `Cn1cc(N2CCN(C(=O)CCOc3ccccc3)CC2)cn1` [CBK305473] was 102%.
Then `Cc1ncc(CN2CCOC(c3cc(C(=O)NCC(C)C)c4ccccc4n3)C2)s1` (stereo not shown) [CBK285897], with 89.9%; and `Cc1nc(C)c(C(=O)N2CCCC(C(=O)c3ccc(F)cc3)C2)s1` (stereo not shown) [CBK305296], with 104%; and `Cc1ccc(C)c2c(C)c(C(=O)N3CCC(O)C(C)C3)[nH]c12` (stereo not shown) [CBK282527], with 97.4%.
The value for `COc1ccc2[nH]c3c(c2c1)CCNC31CCCN(CCc2ccc(F)cc2)C1` (stereo not shown) [CBK039246] was 90.9%.
With `O=C1NC(=O)C2(CCN(C(=O)c3csc4c3CCCC4)CC2)N1` [CBK305601], the viability at 28.5 h, 10 µM is 97.2%.
The value for `Cc1ccc(-n2c(C)cc(C(=O)CSc3n[nH]c(=O)n3C3CC3)c2C)cc1C` [CBK296764] was 92.3%.
Consider `CC(Cc1ccc(N(C)C)cc1)NC(=O)C1CN(S(=O)(=O)c2ccc(F)cc2)C1` (stereo not shown) [CBK285942], for which the viability at 28.5 h, 10 µM was 114%.
`COc1ccc(-c2nc(-c3ccc(C#N)cc3)cnc2N)cc1OC` [CBK063885]: the viability at 28.5 h, 10 µM came to 94.6%.
Then `COc1cc(CN2CCN(S(=O)(=O)c3ccc(F)cc3)CC2)cc(OC)c1O` [CBK264269G], with 103%; and `Cc1noc(C)c1C(=O)N1CCN(c2ccccc2)CC1` [CBK200165], with 97.8%.
The value for `CN1C(=O)CC2(C1=O)C(=O)N(CC(=O)c1ccccc1)c1ccc(F)cc12` (stereo not shown) [CBK075420] was 95.4%; that for `CC(C)(CC(=O)O)CC(=O)Nc1ccc2c(c1)ncn2CCc1ccccc1` [CBK299768] was 91.7%.
Then `Cc1ccc(NC(=O)c2ccc3c(c2)C(=O)N(c2cccc(N4C(=O)c5ccc(C(=O)Nc6ccc(C)cc6)cc5C4=O)n2)C3=O)cc1` [CBK261198], with 90.8%; and `CN(C)Cc1ccc(-c2cc3occ(-c4ccccc4)c3c(=O)n2C)cc1` [CBK025372], with 103%; and `COc1ccc(CCN(Cc2cccnc2)CC(O)COc2cccc3c2CCCC3)cc1` (stereo not shown) [CBK024545T], with 92%.
As to `Cc1oc(NC(=O)CN2CCN(c3cccc(Cl)c3)CC2)c(C#N)c1C` [CBK305906], the viability at 28.5 h, 10 µM came out at 82.5%.
